From ChEMBL document CHEMBL5120865, “Exploration of 6-methyl-7-(Hetero)Aryl-7-Deazapurine ribonucleosides as antileishmanial agents” (Eur J Med Chem, 2022)

What was measured:
Leishmania infantum [1] = experiment: (§1) Antileishmanial activity against sodium stibogluconate, potassium antimonyl tartrate and MIL resistant intracellular Leishmania infantum MHOM/FR/96/LEM3323-CI4 MIL5C13 promastigotes infected in Swiss mouse peritoneal macrophages assessed as inhibition of parasite growth measured after 96 hrs by microscopic analysis; assay type: functional, organism-based; settings: MHOM/FR/96/LEM3323-CI4 MIL5C13, Peritoneal macrophage
[2] = Metabolic stability in mouse liver microsomes S9 fraction assessed as CYP450-mediated metabolism by measuring parent compound remaining measured after 30 mins in presence of NADPH; assay type: ADME, subcellular; settings: read-out: Stability
Cytochrome P450 [3] = molecular target: T1, Cytochrome P450 (Homo sapiens, UniProt P04798+P05177+P05181+P08684+P10632+P10635+P11509+P11712+P13584+P20813+P20815+P20853+P24462+P24903+P33260+P33261+P51589+P78329+P98187+Q02928+Q08477+Q16678+Q16696+Q5TCH4+Q6VVX0+Q7Z449+Q8TAV3+Q96SQ9+Q9HB55); experiment: Metabolic stability in human liver microsomes S9 fraction assessed as CYP450-mediated metabolism by measuring parent compound remaining measured after 60 mins in presence of NADPH; assay type: ADME, subcellular; settings: read-out: Stability
[4] = Metabolic stability in golden hamster liver microsomes S9 fraction assessed as CYP450-mediated metabolism by measuring parent compound remaining measured after 60 mins in presence of NADPH; assay type: ADME, subcellular, Mesocricetus auratus; settings: read-out: Stability
[5] = Metabolic stability in mouse liver microsomes S9 fraction assessed as CYP450-mediated metabolism by measuring parent compound remaining measured after 60 mins in presence of NADPH; assay type: ADME, subcellular; settings: read-out: Stability
[6] = Metabolic stability in mouse liver microsomes S9 fraction assessed as UGT-mediated metabolism by measuring parent compound remaining measured after 30 mins in presence of NADPH; assay type: ADME, subcellular; settings: read-out: Stability
[7] = molecular target: T2, UDP-glucuronosyltransferases (UGTs) (Homo sapiens, UniProt O60656+O75310+O75795+P06133+P0DTE4+P0DTE5+P16662+P19224+P22309+P22310+P35503+P35504+P36537+P54855+Q6UWM9+Q9BY64+Q9HAW7+Q9HAW8+Q9HAW9); experiment: Metabolic stability in human liver microsomes S9 fraction assessed as UGT-mediated metabolism by measuring parent compound remaining measured after 30 mins in presence of NADPH; assay type: ADME, subcellular; settings: read-out: Stability
[8] = molecular target: T2, UDP-glucuronosyltransferases (UGTs); experiment: Metabolic stability in human liver microsomes S9 fraction assessed as UGT-mediated metabolism by measuring parent compound remaining measured after 60 mins in presence of NADPH; assay type: ADME, subcellular; settings: read-out: Stability
[9] = Metabolic stability in mouse liver microsomes S9 fraction assessed as CYP450-mediated metabolism by measuring parent compound remaining measured after 15 mins in presence of NADPH; assay type: ADME, subcellular; settings: read-out: Stability
[10] = Metabolic stability in golden hamster liver microsomes S9 fraction assessed as UGT-mediated metabolism by measuring parent compound remaining measured after 30 mins in presence of NADPH; assay type: ADME, subcellular, Mesocricetus auratus; settings: read-out: Stability
[11] = Selectivity index, ratio of CC50 for cytotoxicity against human MRC5 cells to EC50 for Trypanosoma cruzi Tulahuen CL2 amastigotes expressing beta galactosidase infected in human MRC5 cells; assay type: toxicity, cell-based; settings: read-out: Ratio CC50/EC50
Leishmania infantum [12] = experiment: as §1, with “PMM” for “MIL”, “PMM” for “MIL5C13”; assay type: functional, organism-based; settings: Peritoneal macrophage
Cytochrome P450 [13] = molecular target: T1, Cytochrome P450; experiment: Metabolic stability in human liver microsomes S9 fraction assessed as CYP450-mediated metabolism by measuring parent compound remaining measured after 15 mins in presence of NADPH; assay type: ADME, subcellular; settings: read-out: Stability
[14] = Selectivity index, ratio of CC50 for Cytotoxicity against Swiss mouse peritoneal macrophages to EC50 for intracellular Leishmania infantum MHOM/MA(BE)/67 ITMAP263 amastigotes infected in Swiss mouse peritoneal macrophages; assay type: toxicity, cell-based; settings: read-out: Ratio CC50/EC50
[15] = Metabolic stability in mouse liver microsomes S9 fraction assessed as UGT-mediated metabolism by measuring parent compound remaining measured after 15 mins in presence of NADPH; assay type: ADME, subcellular; settings: read-out: Stability
[16] = Metabolic stability in mouse liver microsomes S9 fraction assessed as UGT-mediated metabolism by measuring parent compound remaining measured after 60 mins in presence of NADPH; assay type: ADME, subcellular; settings: read-out: Stability
Cytochrome P450 [17] = molecular target: T1, Cytochrome P450; experiment: Metabolic stability in human liver microsomes S9 fraction assessed as CYP450-mediated metabolism by measuring parent compound remaining measured after 30 mins in presence of NADPH; assay type: ADME, subcellular; settings: read-out: Stability
Leishmania infantum [18] = experiment: Antileishmanial activity against intracellular Leishmania infantum MHOM/MA(BE)/67 ITMAP263 amastigotes infected in Swiss mouse peritoneal macrophage assessed as inhibition of parasite growth measured after 5 days by geimsa staining based microscopic analysis; assay type: functional, organism-based; settings: MHOM/MA(BE)/67 ITMAP263, Peritoneal macrophage, 120 h
[19] = Cytotoxicity against Swiss mouse peritoneal macrophages assessed as reduction in cell viability measured after 5 days by microscopic analysis; assay type: toxicity, cell-based, Peritoneal macrophage; settings: time 5 day
[20] = Metabolic stability in golden hamster liver microsomes S9 fraction assessed as UGT-mediated metabolism by measuring parent compound remaining measured after 60 mins in presence of NADPH; assay type: ADME, subcellular, Mesocricetus auratus; settings: read-out: Stability
[21] = Metabolic stability in golden hamster liver microsomes S9 fraction assessed as CYP450-mediated metabolism by measuring parent compound remaining measured after 30 mins in presence of NADPH; assay type: ADME, subcellular, Mesocricetus auratus; settings: read-out: Stability
[22] = Metabolic stability in golden hamster liver microsomes S9 fraction assessed as UGT-mediated metabolism by measuring parent compound remaining measured after 15 mins in presence of NADPH; assay type: ADME, subcellular, Mesocricetus auratus; settings: read-out: Stability
[23] = Cytotoxicity against human MRC5 cells assessed as reduction in cell viability incubated for 3 days by resazurin dye based fluorescence analysis; assay type: toxicity; settings: time 3 day
Trypanosoma cruzi = experiment: Antitrypanosomal activity against nifurtimox-sensitive Tulahuen CL2 amastigotes expressing beta galactosidase infected in human MRC5 cells assessed as inhibition of parasite growth using chlorophenol red beta-D-galactopyranoside as substrate and measured after 7 days by spectrophotometric analysis; assay type: functional, organism-based; settings: Tulahuen CL2, MRC5, 168 h, read-out: EC50
Leishmania infantum [24] = experiment: as §1, with “stibogluconate and” for “stibogluconate,”, “tartrate” for “tartrate and MIL”, “MHOM/FR/96/LEM3323-CI4” for “MHOM/FR/96/LEM3323-CI4 MIL5C13”; assay type: functional, organism-based; settings: MHOM/FR/96/LEM3323-CI4, Peritoneal macrophage
[25] = molecular target: T2, UDP-glucuronosyltransferases (UGTs); experiment: Metabolic stability in human liver microsomes S9 fraction assessed as UGT-mediated metabolism by measuring parent compound remaining measured after 15 mins in presence of NADPH; assay type: ADME, subcellular; settings: read-out: Stability
[26] = Metabolic stability in golden hamster liver microsomes S9 fraction assessed as CYP450-mediated metabolism by measuring parent compound remaining measured after 15 mins in presence of NADPH; assay type: ADME, subcellular, Mesocricetus auratus; settings: read-out: Stability
Leishmania infantum [27] = experiment: Antileishmanial activity against intracellular Leishmania infantum MHOM/MA(BE)/67 amastigotes infected in golden hamster assessed as reduction of amastigote burdens in spleen at 40 mg/kg, po SID for 5 days by geimsa staining based microscopic analysis; assay type: functional; design: scale not given: the % may be the effect or the level left; settings: time 5 day
Leishmania infantum [28] = experiment: Antileishmanial activity against intracellular Leishmania infantum MHOM/MA(BE)/67 amastigotes infected in golden hamster assessed as reduction of amastigote burdens in bone marrow at 40 mg/kg, po SID for 5 days by geimsa staining based microscopic analysis; assay type: functional; design: scale not given: the % may be the effect or the level left; settings: time 5 day
Leishmania infantum [29] = experiment: Antileishmanial activity against intracellular Leishmania infantum MHOM/MA(BE)/67 amastigotes infected in golden hamster assessed as reduction of amastigote burdens in liver at 40 mg/kg, po SID for 5 days by geimsa staining based microscopic analysis; assay type: functional; design: scale not given: the % may be the effect or the level left; settings: time 5 day

Q: With `Cc1ncnc2c1c(-c1ncccc1Cl)cn2[C@@H]1O[C@H](CO)[C@@H](O)[C@H]1O` as the compound, how does the EC50 (Leishmania infantum [1]) read?
A: Its EC50 is 730 nM.

Q: What about the remaining at 0.5 h [2] of the same compound?
A: Its remaining at 0.5 h is 83%.

Q: What about the remaining at 1 h (Cytochrome P450 [3]) of the same compound?
A: The remaining at 1 h was 99%.

Q: And the remaining at 1 h [4]?
A: Its remaining at 1 h is 90%.

Q: What about the remaining at 1 h [5] of the same compound?
A: Its remaining at 1 h is 74%.

Q: And the remaining at 0.5 h [6]?
A: The remaining at 0.5 h was 91%.

Q: What about the remaining at 0.5 h [7] of the same compound?
A: The remaining at 0.5 h was 95%.

Q: What about the remaining at 1 h [8] of the same compound?
A: Its remaining at 1 h is 101%.

Q: And the remaining at 0.25 h [9]?
A: Its remaining at 0.25 h is 98%.

Q: What about the remaining at 0.5 h [10] of the same compound?
A: Its remaining at 0.5 h is 96%.

Q: What about the selectivity ratio [11] of the same compound?
A: Its selectivity ratio is > 91.

Q: What about the EC50 (Leishmania infantum [12]) of the same compound?
A: Its EC50 is 1460 nM.

Q: What about the remaining at 0.25 h (Cytochrome P450 [13]) of the same compound?
A: Its remaining at 0.25 h is 107%.

Q: And the selectivity ratio [14]?
A: Its selectivity ratio is > 50.

Q: What about the remaining at 0.25 h [15] of the same compound?
A: Its remaining at 0.25 h is 92%.

Q: What about the remaining at 1 h [16] of the same compound?
A: The remaining at 1 h was 98%.

Q: And the remaining at 0.5 h (Cytochrome P450 [17])?
A: The remaining at 0.5 h was 100%.

Q: And the EC50 (Leishmania infantum [18])?
A: Its EC50 is 1200 nM.

Q: What about the CC50 at 120 h [19] of the same compound?
A: The CC50 at 120 h was > 64000 nM.

Q: And the remaining at 1 h [20]?
A: The remaining at 1 h was 96%.

Q: And the remaining at 0.5 h [21]?
A: Its remaining at 0.5 h is 98%.

Q: What about the remaining at 0.25 h [22] of the same compound?
A: The remaining at 0.25 h was 95%.

Q: And the CC50 at 72 h [23]?
A: Its CC50 at 72 h is > 64000 nM.

Q: And the EC50 (Trypanosoma cruzi)?
A: The EC50 was 700 nM.

Q: And the EC50 (Leishmania infantum [24])?
A: The EC50 was 670 nM.

Q: What about the remaining at 0.25 h [25] of the same compound?
A: Its remaining at 0.25 h is 93%.

Q: And the remaining at 0.25 h [26]?
A: Its remaining at 0.25 h is 86%.

Q: With `CCCCCCCCCCCCCCCCOP(=O)([O-])OCC[N+](C)(C)C` [MILTEFOSINE] as the compound, how does the Activity (Leishmania infantum [27]) read?
A: Its Activity is 99.2%.

Q: And the Activity (Leishmania infantum [28])?
A: The Activity was 93.1%.

Q: And the Activity (Leishmania infantum [29])?
A: Its Activity is 94%.

Q: And the EC50 (Leishmania infantum [18])?
A: Its EC50 is 8300 nM.
